Read-outs that look alike come from different tables or passages of the source. Values belong to the compound of their own block, whether it stands above or below them.
Assays:
[1] = target: T1, baculovirus-expressed ALK (Homo sapiens, UniProt Q9UM73); assay: ALK Kinase Assay (ELISA-type, time-resolved fluorescence); format: biochemical
T1 construct: host or cells: baculovirus expression system
How it was run: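 Substrate coating: phospholipase C-γ, 10 μg/mL in TBS. Kinase step: 30 ng/ml ALK, 15 min, 37° C. Detection and analysis: Eu-N1 PT66 antibody, with IC50 fitted as a sigmoidal variable-slope dose-response curve.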

[2] = target: T2, c-Met (cytoplasmic domain) (Homo sapiens, UniProt P08581); assay: c-Met Kinase Assay (same methods as for ALK, with modifications); format: biochemical
T2 construct: 10 ng/mL c-Met (cytoplasmic domain, Invitrogen Corporation #PV3143); purchased Invitrogen Corporation PV3143
How it was run: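 This plate-based kinase format uses immobilized phospholipase C-γ as substrate, phosphorylated by c-Met cytoplasmic domain (10 ng/mL) at 37° C for 15 minutes.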

[3] = ALK kinase inhibition, 1 μM ATP (Km level), read-out: ALK Activity
[4] = c-Met kinase inhibition, 1 μM ATP (Km level), read-out: cMet Activity
[5] = 1 μM ATP (Km level), 30 ng/ml ALK, 37° C., 15 minutes, read-out: ALK Activity (ALK kinase inhibition, IC50 class)
[6] = 1 μM ATP (Km level), 10 ng/mL c-Met, read-out: cMet Activity (c-Met kinase inhibition, IC50 class)
[7] = ALK kinase inhibition, 1 μM ATP, read-out: ALK Activity
[8] = c-Met kinase inhibition, 1 μM ATP, read-out: cMet Activity
[9] = 1 μM ATP (Km level), read-out: ALK Activity (ALK Kinase Inhibition, IC50)
[10] = 1 μM ATP (Km level), read-out: cMet Activity (c-Met Kinase Inhibition, IC50)

T2 sequence (P08581 956-1390 limits assumed): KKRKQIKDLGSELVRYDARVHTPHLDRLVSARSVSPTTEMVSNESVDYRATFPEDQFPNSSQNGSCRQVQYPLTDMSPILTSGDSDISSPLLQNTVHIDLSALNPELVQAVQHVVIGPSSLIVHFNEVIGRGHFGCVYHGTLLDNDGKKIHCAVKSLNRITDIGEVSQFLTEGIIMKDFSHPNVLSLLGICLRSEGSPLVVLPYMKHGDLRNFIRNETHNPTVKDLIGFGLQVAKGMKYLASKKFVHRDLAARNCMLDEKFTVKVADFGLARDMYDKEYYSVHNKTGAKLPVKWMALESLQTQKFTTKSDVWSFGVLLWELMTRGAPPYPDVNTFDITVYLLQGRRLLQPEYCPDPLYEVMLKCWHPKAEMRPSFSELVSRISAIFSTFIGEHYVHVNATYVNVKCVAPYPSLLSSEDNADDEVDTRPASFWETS
T1 sequence (Q9UM73 19-1620): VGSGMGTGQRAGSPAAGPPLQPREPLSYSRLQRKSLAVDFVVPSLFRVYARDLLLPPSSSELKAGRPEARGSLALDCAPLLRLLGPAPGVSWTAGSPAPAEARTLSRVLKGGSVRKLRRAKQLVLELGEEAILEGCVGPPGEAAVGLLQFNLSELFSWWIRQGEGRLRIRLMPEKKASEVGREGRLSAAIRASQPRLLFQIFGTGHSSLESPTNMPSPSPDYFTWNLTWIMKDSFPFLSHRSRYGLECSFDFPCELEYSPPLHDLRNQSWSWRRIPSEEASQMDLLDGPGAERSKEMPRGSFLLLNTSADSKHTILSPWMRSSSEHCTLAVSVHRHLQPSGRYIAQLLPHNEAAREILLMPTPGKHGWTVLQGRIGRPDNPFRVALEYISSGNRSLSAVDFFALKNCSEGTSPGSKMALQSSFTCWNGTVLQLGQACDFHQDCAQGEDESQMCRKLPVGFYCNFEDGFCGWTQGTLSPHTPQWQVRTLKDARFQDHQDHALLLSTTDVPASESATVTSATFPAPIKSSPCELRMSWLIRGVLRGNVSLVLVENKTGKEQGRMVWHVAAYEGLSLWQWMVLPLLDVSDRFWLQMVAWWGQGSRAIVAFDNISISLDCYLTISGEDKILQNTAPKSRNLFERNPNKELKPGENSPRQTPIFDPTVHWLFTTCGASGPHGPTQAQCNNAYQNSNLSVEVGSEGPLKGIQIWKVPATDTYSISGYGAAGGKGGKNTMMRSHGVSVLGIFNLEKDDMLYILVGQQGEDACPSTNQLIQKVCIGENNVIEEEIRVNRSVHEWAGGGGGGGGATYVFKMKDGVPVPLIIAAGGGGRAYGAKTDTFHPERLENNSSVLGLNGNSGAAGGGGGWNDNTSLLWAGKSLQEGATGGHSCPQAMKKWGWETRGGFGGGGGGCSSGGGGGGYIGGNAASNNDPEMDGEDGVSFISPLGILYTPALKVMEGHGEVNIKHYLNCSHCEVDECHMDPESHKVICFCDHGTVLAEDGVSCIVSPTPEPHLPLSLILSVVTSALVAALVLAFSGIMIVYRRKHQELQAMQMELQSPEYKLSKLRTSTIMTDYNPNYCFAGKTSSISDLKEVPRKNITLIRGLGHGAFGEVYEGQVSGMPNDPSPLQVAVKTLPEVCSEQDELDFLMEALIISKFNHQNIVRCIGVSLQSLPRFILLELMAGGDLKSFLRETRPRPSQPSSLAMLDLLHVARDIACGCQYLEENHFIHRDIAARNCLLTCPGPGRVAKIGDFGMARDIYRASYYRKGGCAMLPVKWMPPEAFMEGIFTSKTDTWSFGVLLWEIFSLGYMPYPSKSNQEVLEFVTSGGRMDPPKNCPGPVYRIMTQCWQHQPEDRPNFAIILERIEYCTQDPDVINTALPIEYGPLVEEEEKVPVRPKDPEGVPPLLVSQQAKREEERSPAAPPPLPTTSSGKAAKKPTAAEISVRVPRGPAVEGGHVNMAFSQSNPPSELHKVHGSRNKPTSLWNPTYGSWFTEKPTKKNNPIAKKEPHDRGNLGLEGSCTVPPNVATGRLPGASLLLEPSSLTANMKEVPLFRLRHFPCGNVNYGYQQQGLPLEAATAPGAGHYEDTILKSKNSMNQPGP

IC50 [1, 3]: 100 to 1000 nM | IC50 [2, 4]: < 100 nM
SMILES: C#CCNC(=O)c1cccc(F)c1Nc1nc(Nc2ccc3c(c2)N(CC)C(=O)CN(C(=O)OCC)C3)ncc1Cl [Example 1876, 8-[5-Chloro-4-(2-fluoro-6-prop-2-ynylcarbamoyl-phenylamino)-pyrimidin-2-ylamino]-1-ethyl-2-oxo-1,2,3,5-tetrahydro-benzo[e][1,4]diazepine-4-carboxylic acid ethyl ester]

IC50 [1, 5]: < 100 nM | IC50 [2, 6]: 1000 to 10000 nM
SMILES: COc1cc2c(cc1Nc1ncc(Cl)c(Nc3cc(C#N)ccc3OC)n1)CCN(CC(=O)N(C)C)CC2 [Example 1149, 2-{7-[5-Chloro-4-(5-cyano-2-methoxy-phenylamino)-pyrimidin-2-ylamino]-8-methoxy-1,2,4,5-tetrahydro-benzo[d]azepin-3-yl}-N,N-dimethyl-acetamide]

IC50 [1, 3]: 100 to 1000 nM | IC50 [2, 4]: 1000 to 10000 nM
SMILES: COCCN1CCc2ccc(Nc3ncc(Cl)c(N[C@@H]4CCC[C@H]4NS(C)(=O)=O)n3)cc2CC1 (relative stereo) [Example 371, N-(trans-2-{5-Chloro-2-[3-(2-methoxy-ethyl)-2,3,4,5-tetrahydro-1H-benzo[d]azepin-7-ylamino]-pyrimidin-4-ylamino}-cyclopentyl)-methanesulfonamide]

IC50 [1, 5]: 1000 to 10000 nM | IC50 [2, 6]: 100 to 1000 nM
SMILES: COCCN1CCc2ccc(Nc3ncc(Cl)c(Nc4c(OC)cccc4C(=O)NCC#N)n3)cc2CC1 [Example 1063, 2-{5-Chloro-2-[3-(2-methoxy-ethyl)-2,3,4,5-tetrahydro-1H-benzo[d]azepin-7-ylamino]-pyrimidin-4-ylamino}-N-cyanomethyl-3-methoxy-benzamide]

IC50 [1, 7]: < 100 nM | IC50 [2, 8]: < 100 nM
SMILES: CNC(=O)c1scc(C)c1Nc1nc(Nc2ccc3c(c2)CC(=O)NCC3)ncc1Cl [Example 1812, 3-[5-Chloro-2-(4-oxo-2,3,4,5-tetrahydro-1H-benzo[d]azepin-7-ylamino)-pyrimidin-4-ylamino]-4-methyl-thiophene-2-carboxylic acid methylamide]

SMILES: CNC(=O)c1ccccc1Nc1nc(Nc2ccc3c(c2)C2CCC(C3)N2C(C)C)ncc1Cl (centres unmarked) [Example 80, 2-[5-Chloro-2-(12-isopropyl-12-aza-tricyclo[7.2.1.0*2,7*]dodeca-2(7),3,5-trien-4-ylamino)-pyrimidin-4-ylamino]-N-methyl-benzamide]
IC50 [1, 3]: < 100 nM | IC50 [2, 4]: < 100 nM

IC50 [1, 7]: 100 to 1000 nM | IC50 [2, 8]: < 100 nM
SMILES: CNC(=O)c1cccc(F)c1Nc1nc(Nc2ccc3c(c2)N(C(=O)CN)CCCC3(C)C)ncc1Cl [Example 1617, 2-{2-[1-(2-Amino-acetyl)-5,5-dimethyl-2,3,4,5-tetrahydro-1H-benzo[b]azepin-8-ylamino]-5-chloro-pyrimidin-4-ylamino}-3-fluoro-N-methyl-benzamide]

IC50 [1, 9]: 100 to 1000 nM | IC50 [2, 10]: 100 to 1000 nM
SMILES: Cn1ccnc1-c1ccccc1Nc1nc(Nc2ccc3c(c2)CCC(NCC(F)F)CC3)ncc1Cl (centres unmarked) [Example 661, 5-Chloro-N*2*-[7-(2,2-difluoro-ethylamino)-6,7,8,9-tetrahydro-5H-benzocyclohepten-2-yl]-N*4*-[2-(1-methyl-1H-imidazol-2-yl)-phenyl]-pyrimidine-2,4-diamine]

IC50 [1, 7]: 100 to 1000 nM | IC50 [2, 8]: < 100 nM
SMILES: C#CCNC(=O)c1cccc(F)c1Nc1nc(Nc2ccc3c(c2)N(C(C)=O)CCCC3)ncc1Cl [Example 1490, 2-[2-(1-Acetyl-2,3,4,5-tetrahydro-1H-benzo[b]azepin-8-ylamino)-5-chloro-pyrimidin-4-ylamino]-3-fluoro-N-prop-2-ynyl-benzamide]

SMILES: CNC(=O)c1ccccc1Nc1nc(Nc2ccc3c(c2Cl)C2CCC(C3)N2CCOC)ncc1Cl (centres unmarked) [Example 87, 2-{5-Chloro-2-[3-chloro-12-(2-methoxy-ethyl)-12-aza-tricyclo[7.2.1.0*2,7*]dodeca-2(7),3,5-trien-4-ylamino]-pyrimidin-4-ylamino}-N-methyl-benzamide]
IC50 [1, 3]: < 100 nM | IC50 [2, 4]: 100 to 1000 nM

IC50 [1, 7]: 1000 to 10000 nM | IC50 [2, 8]: 100 to 1000 nM
SMILES: CNC(=O)c1cc(F)ccc1Nc1nc(Nc2ccc3c(c2)-n2ccnc2CCC3)ncc1Cl [Example 1841, 2-[5-Chloro-2-(5,6-dihydro-4H-3,10b-diaza-benzo[e]azulen-9-ylamino)-pyrimidin-4-ylamino]-5-fluoro-N-methyl-benzamide]

IC50 [1, 3]: < 100 nM | IC50 [2, 4]: < 100 nM
SMILES: CCN1C(=O)CCC(C)(C)c2cc(Nc3ncc(Cl)c(Nc4ccccc4C(=O)NC)n3)ccc21 [Example 387, 2-[5-Chloro-2-(1-ethyl-5,5-dimethyl-2-oxo-2,3,4,5-tetrahydro-1H-benzo[b]azepin-7-ylamino)-pyrimidin-4-ylamino]-N-methyl-benzamide]

IC50 [1, 9]: < 100 nM | IC50 [2, 10]: > 10000 nM
SMILES: CNC(=O)C1C2C=CC(C2)C1Nc1nc(Nc2cc3c(cc2OC)CCN(CCOC)CC3)ncc1Cl (stereo not drawn) [Example 604, (2-exo-3-exo)-3-{5-Chloro-2-[8-methoxy-3-(2-methoxy-ethyl)-2,3,4,5-tetrahydro-1H-benzo[d]azepin-7-ylamino]-pyrimidin-4-ylamino}-bicyclo[2.2.1]hept-5-ene-2-carboxylic acid methylamide]

IC50 [1, 7]: 100 to 1000 nM | IC50 [2, 8]: < 100 nM
SMILES: Cc1nnc(-c2ccccc2Nc2nc(Nc3ccc4c(c3)CCOC(=O)N4C)ncc2Cl)s1 [Example 1494, 2-{5-Chloro-4-[2-(5-methyl-[1,3,4]thiadiazol-2-yl)-phenylamino]-pyrimidin-2-ylamino}-5-methyl-8,9-dihydro-5H-7-oxa-5-aza-benzocyclohepten-6-one]

IC50 [1, 5]: < 100 nM | IC50 [2, 6]: 1000 to 10000 nM
SMILES: COc1cc2c(cc1Nc1ncc(Cl)c(Nc3ccccc3S(=O)(=O)N3CCCC3)n1)CCN(Cc1ncco1)CC2 [Example 1191, 5-Chloro-N*2*-(8-methoxy-3-oxazol-2-ylmethyl-2,3,4,5-tetrahydro-1H-benzo[d]azepin-7-yl)-N*4*-[2-(pyrrolidine-1-sulfonyl)-phenyl]-pyrimidine-2,4-diamine]

SMILES: CC(C)N1C2CCC1c1cc(Nc3ncc(Cl)c(N[C@@H]4CCCC[C@H]4NS(C)(=O)=O)n3)ccc1C2 (stereo partly drawn) [Example 83, N-{(1R,2R)-2-[5-Chloro-2-(12-isopropyl-12-aza-tricyclo[7.2.1.0*2,7*]dodeca-2(7),3,5-trien-4-ylamino)-pyrimidin-4-ylamino]-cyclohexyl}-methanesulfonamide]
IC50 [1, 3]: < 100 nM | IC50 [2, 4]: 100 to 1000 nM

IC50 [1, 3]: < 100 nM | IC50 [2, 4]: > 10000 nM
SMILES: COc1cc2c(cc1Nc1ncc(Cl)c(N[C@@H]3CCCC[C@H]3NS(C)(=O)=O)n1)CCN(C[C@H](O)C(F)(F)F)CC2 [Example 461, N-((1R,2R)-2-{5-Chloro-2-[8-methoxy-3-((S)-3,3,3-trifluoro-2-hydroxy-propyl)-2,3,4,5-tetrahydro-1H-benzo[d]azepin-7-ylamino]-pyrimidin-4-ylamino}-cyclohexyl)-methanesulfonamide]

IC50 [1, 5]: < 100 nM | IC50 [2, 6]: > 10000 nM
SMILES: COc1cc2c(cc1Nc1ncc(Cl)c(Nc3cccc(N4CCOCC4)c3)n1)CCN(CC(=O)N(C)C)CC2 [Example 1145, 2-{7-[5-Chloro-4-(3-morpholin-4-yl-phenylamino)-pyrimidin-2-ylamino]-8-methoxy-1,2,4,5-tetrahydro-benzo[d]azepin-3-yl}-N,N-dimethyl-acetamide]

SMILES: COCCNC1CCCc2c(ccc(Nc3ncc(Cl)c(N[C@H]4[C@@H](C(N)=O)[C@@H]5C=C[C@H]4C5)n3)c2OC)C1 (stereo partly drawn) [Example 956, (1S,2S,3R,4R)-3-{5-Chloro-2-[1-methoxy-6-(2-methoxy-ethylamino)-6,7,8,9-tetrahydro-5H-benzocyclohepten-2-ylamino]-pyrimidin-4-ylamino}-bicyclo[2.2.1]hept-5-ene-2-carboxylic acid amide]
IC50 [1, 9]: < 100 nM | IC50 ([2]; cMet Activity (c-Met Kinase Inhibition, IC50), 1 μM ATP (Km level)): > 10000 nM

IC50 [1, 5]: < 100 nM | IC50 [2, 6]: < 100 nM
SMILES: CNC(=O)c1cccc(F)c1Nc1nc(Nc2ccc3c(c2)NCC(NCCOC)CC3(C)C)ncc1Cl (centres unmarked) [Example 1294, 2-{5-Chloro-2-[3-(2-methoxy-ethylamino)-5,5-dimethyl-2,3,4,5-tetrahydro-1H-1-benzazepin-8-ylamino]-pyrimidin-4-ylamino}-3-fluoro-N-methyl-benzamide]

IC50 [1, 9]: < 100 nM | IC50 [2, 10]: > 10000 nM
SMILES: COCC(COC)N1CCc2cc(Nc3ncc(Cl)c(N[C@H]4[C@@H](C(N)=O)[C@@H]5C=C[C@H]4C5)n3)c(OC)cc2CC1 [Example 815, (1S,2S,3R,4R)-3-{5-Chloro-2-[8-methoxy-3-(2-methoxy-1-methoxymethyl-ethyl)-2,3,4,5-tetrahydro-1H-benzo[d]azepin-7-ylamino]-pyrimidin-4-ylamino}-bicyclo[2.2.1]hept-5-ene-2-carboxylic acid amide]

IC50 [1, 3]: < 100 nM | IC50 [2, 4]: 100 to 1000 nM
SMILES: COCCN1CCc2ccc(Nc3ncc(Cl)c(Nc4ccccc4-c4ncc[nH]4)n3)cc2CC1 [Example 221, 5-Chloro-N*4*-[2-(1H-imidazol-2-yl)-phenyl]-N*2*-[3-(2-methoxy-ethyl)-2,3,4,5-tetrahydro-1H-benzo[d]azepin-7-yl]-pyrimidine-2,4-diamine]
